Earlier results as cited in patent US20130281394A1, “Chemosensory Receptor Ligand-Based Therapies” (ELCELYX THERAPEUTICS, INC., priority 2010, published 2013).

Tested on: bitter receptor
Details: not given

Row | Taste quality | Compound
1 | Acrid mustard oils | C[S+]([O-])CCCCN=C=S (centres unmarked) [4-Methylsulfinyl butyl isothiocyanate]
2 | Bitter and astringent | O=C(O[C@@H]1Cc2c(O)cc(O)cc2O[C@@H]1c1ccc(O)c(O)c1)c1cc(O)c(O)c(O)c1 [Epicatechin gallate]
3 | Bitter with sweet | O=C(O[C@@H]1Cc2c(O)cc(O)cc2O[C@@H]1c1cc(O)c(O)c(O)c1)c1cc(O)c(O)c(O)c1 [Epigallocatechin gallate]
4 | Bitter or astringent | O=c1c(-c2ccc(O)cc2)coc2cc(O)cc(O)c12 [Genistein]
5 | Astringent | O=c1c(-c2ccc(O)cc2)coc2cc(O[C@@H]3O[C@H](CO)[C@@H](O)[C@H](O)[C@H]3O)cc(O)c12 [Genistin]
6 | Bitter | O=S(=O)(O)ON=C(Cc1c[nH]c2ccccc12)S[C@@H]1O[C@H](CO)[C@@H](O)[C@H](O)[C@H]1O [Glucobrassicin]
7 | Bitter | C=CC1CNC(=S)O1 (centres unmarked) [Goitrin 5-vinyl-2-oxazolidine thione, 5-vinyl-2-oxazolidine thione]
8 | Tasteless | CC1(C)O[C@H]2CC(=O)OC[C@]23[C@H]2CC[C@@](C)([C@@H](O[C@@H]4O[C@H](CO)[C@@H](O)[C@H](O)[C@H]4O)c4ccoc4)[C@@]4(O[C@@H]4C(=O)O)[C@]2(C)C(=O)C[C@@H]13 [Limonin glucoside]
9 | Bitter | CC1(C)O[C@H]2CC(=O)OC[C@]23[C@H]2CC[C@@]4(C)[C@H](c5ccoc5)OC(=O)[C@H]5O[C@]54[C@]2(C)C(=O)C[C@@H]13 [Limonin]

Row | Compound | Taste quality
10 | C=CCC(=NOS(=O)(=O)O)S[C@@H]1O[C@H](CO)[C@@H](O)[C@H](O)[C@H]1O (stereo in doubt) [Sinigrin] | Bitter
11 | C[S+]([O-])CCCN=C=S (centres unmarked) [3-Methyl-sulfinylpropyl isothiocyanate] | Acrid mustard oils
12 | C=CCN=C=S [Allyl-isothiocyanate] | Acrid mustard oils;
13 | S=C=NCc1ccccc1 [Benzyl isothiocyanate] | Acrid mustard oils;
14 | O=c1c(-c2ccc(O)cc2)coc2cc(O[C@@H]3O[C@H](CO)[C@@H](O)[C@H](O)[C@H]3O)ccc12 [Daidzin] | Astringent
15 | Oc1cc(O)c2c(c1)O[C@H](c1cc(O)c(O)c(O)c1)[C@H](O)C2 [Epigallocatechin] | Bitter with sweet

Biological target: T1, sweet receptor (Homo sapiens, UniProt Q7RTX0+Q8TE23)
T1 sequence (Q8TE23 20-839): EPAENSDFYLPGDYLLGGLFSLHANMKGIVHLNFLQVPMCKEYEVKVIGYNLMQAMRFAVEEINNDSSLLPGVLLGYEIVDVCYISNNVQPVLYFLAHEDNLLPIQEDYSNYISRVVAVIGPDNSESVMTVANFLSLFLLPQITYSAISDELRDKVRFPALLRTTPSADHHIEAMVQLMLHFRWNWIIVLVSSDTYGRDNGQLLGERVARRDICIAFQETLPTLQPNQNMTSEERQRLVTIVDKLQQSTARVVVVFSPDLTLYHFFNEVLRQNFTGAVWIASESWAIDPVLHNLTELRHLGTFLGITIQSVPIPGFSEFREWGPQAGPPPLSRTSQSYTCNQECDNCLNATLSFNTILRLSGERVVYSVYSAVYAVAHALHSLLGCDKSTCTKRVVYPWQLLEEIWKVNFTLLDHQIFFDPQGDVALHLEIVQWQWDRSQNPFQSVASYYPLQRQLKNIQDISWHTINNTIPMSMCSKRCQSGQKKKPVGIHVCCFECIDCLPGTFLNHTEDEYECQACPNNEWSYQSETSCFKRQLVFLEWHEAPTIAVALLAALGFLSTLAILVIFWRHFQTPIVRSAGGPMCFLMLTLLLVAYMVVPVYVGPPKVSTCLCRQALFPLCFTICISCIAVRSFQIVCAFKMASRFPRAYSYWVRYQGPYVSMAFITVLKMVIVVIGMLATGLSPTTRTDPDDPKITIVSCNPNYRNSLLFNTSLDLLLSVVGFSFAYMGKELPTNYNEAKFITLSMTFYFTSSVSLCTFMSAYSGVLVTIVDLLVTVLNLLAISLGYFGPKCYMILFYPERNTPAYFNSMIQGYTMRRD
T1 sequence (Q7RTX0 21-852): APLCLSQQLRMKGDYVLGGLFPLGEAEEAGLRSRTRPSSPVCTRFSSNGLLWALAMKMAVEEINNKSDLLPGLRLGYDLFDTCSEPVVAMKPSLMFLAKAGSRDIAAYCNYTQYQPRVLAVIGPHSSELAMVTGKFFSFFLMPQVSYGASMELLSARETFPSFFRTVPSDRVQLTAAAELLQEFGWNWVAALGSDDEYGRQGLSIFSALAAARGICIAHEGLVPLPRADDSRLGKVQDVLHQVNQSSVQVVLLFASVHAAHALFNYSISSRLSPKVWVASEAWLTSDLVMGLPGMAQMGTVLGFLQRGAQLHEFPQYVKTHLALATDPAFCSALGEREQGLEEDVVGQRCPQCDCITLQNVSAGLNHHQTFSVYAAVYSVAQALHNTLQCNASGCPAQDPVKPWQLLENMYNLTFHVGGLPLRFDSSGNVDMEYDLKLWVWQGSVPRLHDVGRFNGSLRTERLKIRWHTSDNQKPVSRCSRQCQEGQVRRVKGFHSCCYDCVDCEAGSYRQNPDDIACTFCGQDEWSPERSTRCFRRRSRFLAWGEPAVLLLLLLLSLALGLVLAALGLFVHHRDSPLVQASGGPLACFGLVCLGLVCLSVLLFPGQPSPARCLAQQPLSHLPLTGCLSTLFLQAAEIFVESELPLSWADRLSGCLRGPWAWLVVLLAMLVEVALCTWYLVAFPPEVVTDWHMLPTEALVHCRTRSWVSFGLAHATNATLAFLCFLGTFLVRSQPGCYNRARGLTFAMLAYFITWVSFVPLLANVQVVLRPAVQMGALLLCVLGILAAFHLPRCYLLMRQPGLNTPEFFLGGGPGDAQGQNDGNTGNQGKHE
Details: relative sweetness on a weight comparison basis to sucrose (= 1.0); ranges: varied with the concentration of sucrose

Row | Sweetness/potency | Compound
16 | 90 | CC1(C)[C@@H](O[C@@H]2O[C@H](C(=O)O)[C@@H](O)[C@H](O)[C@H]2O[C@@H]2O[C@H](C(=O)O)[C@@H](O)[C@H](O)[C@H]2O)CC[C@]2(C=O)[C@H]3CC[C@@H]4C5=C[C@@](C)(C(=O)O)CC[C@]5(C)CC[C@@]4(C)[C@]3(C)CC[C@@H]12 [Periandrin I]
17 | 220 | CC1(C(=O)O)C=C2C3CCC4C5(C=O)CCC(OC6OC(C(=O)O)C(O)C(O)C6OC6OCC(O)C(O)C6O)C(C)(C)C5CCC4(C)C3(C)CCC2(C)CC1 (centres unmarked) [Periandrin V]
18 | 400 | COc1ccc([C@H]2Cc3cccc(O)c3C(=O)O2)cc1O [Phyllodulcin]
19 | 100 | C=C(C)C1CCC2(C)C(CC(OC3OCC(O)C(O)C3O)C3C(C(C)(O)C/C=C/C(C)(C)O)CCC32C)C1(C)CCC(=O)O (centres unmarked) [Pterocaryoside B]
20 | 221 | C=C1C[C@@]23CC[C@H]4[C@@](C)(CCC[C@@]4(C)C(=O)O[C@@H]4O[C@H](CO)[C@@H](O)[C@H](O)[C@H]4O[C@@H]4O[C@H](CO)[C@@H](O)[C@H](O)[C@H]4O)[C@@H]2CC[C@]1(O[C@@H]1O[C@H](CO)[C@@H](O)[C@H](O[C@@H]2O[C@H](CO)[C@@H](O)[C@H](O)[C@H]2O)[C@H]1O[C@@H]1O[C@H](CO)[C@@H](O)[C@H](O)[C@H]1O)C3 [Rebaudioside D]
21 | 174 | C=C1C[C@@]23CC[C@H]4[C@@](C)(CCC[C@@]4(C)C(=O)O[C@@H]4O[C@H](CO)[C@@H](O)[C@H](O)[C@H]4O[C@@H]4O[C@H](CO)[C@@H](O)[C@H](O)[C@H]4O)[C@@H]2CC[C@]1(O[C@@H]1O[C@H](CO)[C@@H](O)[C@H](O)[C@H]1O[C@@H]1O[C@H](CO)[C@@H](O)[C@H](O)[C@H]1O)C3 [Rebaudioside E]
22 | 115 | C=C1C[C@@]23CC[C@H]4[C@@](C)(CCC[C@@]4(C)C(=O)O[C@@H]4O[C@H](CO)[C@@H](O)[C@H](O)[C@H]4O)[C@@H]2CC[C@]1(O[C@@H]1O[C@H](CO)[C@@H](O)[C@H](O)[C@H]1O)C3 [Rubusoside]
23 | 35 | Oc1ccc([C@H]2Oc3c(c(O)cc4c3[C@H]3c5c(O)cc(O)cc5O[C@@](c5ccc(O)cc5)(O4)[C@@H]3O)[C@H](c3c(O)cc(O)c4c3O[C@H](c3ccc(O)cc3)[C@@H](O)C4)[C@H]2O)cc1 [Selligueain A]
24 | 90 | C=C1C[C@@]23CC[C@H]4[C@@](C)(CCC[C@@]4(C)C(=O)O)[C@@H]2CC[C@]1(O[C@@H]1O[C@H](CO)[C@@H](O)[C@H](O)[C@H]1O[C@@H]1O[C@H](CO)[C@@H](O)[C@H](O)[C@H]1O)C3 [Steviolbioside]
25 | 210 | C=C1C[C@@]23CC[C@H]4[C@@](C)(CCC[C@@]4(C)C(=O)O[C@@H]4O[C@H](CO)[C@@H](O)[C@H](O)[C@H]4O)[C@@H]2CC[C@]1(O[C@@H]1O[C@H](CO)[C@@H](O)[C@H](O)[C@H]1O[C@@H]1O[C@H](CO)[C@@H](O)[C@H](O)[C@H]1O)C3 [Stevioside]
26 | 1000 | CC[C@@H](C)C(=O)O[C@@H](C)[C@]1(O)CC[C@]2(O)[C@@H]3CC[C@H]4C[C@@H](O[C@@H]5C[C@H](O)[C@H](O[C@H]6C[C@H](OC)[C@H](O[C@H]7C[C@@H](OC)[C@H](O[C@H]8C[C@@H](OC)[C@H](O[C@@H]9O[C@H](C)[C@@H](O[C@@H]%10O[C@H](CO)[C@@H](O)[C@H](O)[C@H]%10O)[C@H](OC)[C@H]9O)[C@@H](C)O8)[C@@H](C)O7)[C@@H](C)O6)[C@@H](C)O5)CC[C@]4(C)[C@H]3C[C@@H](OC(C)=O)[C@]12C [Telosmoside A15]
27 | 13 | C/C=C/c1ccc(OC)cc1 [trans-Anethole]
28 | 600 | Albiziasaponin B
29 | 500 | Baiyunoside
30 | 2,000 | Brazzein (QDKCKKVYENYPVSKCQLANQCNYDCKLDKHARSGECFYDEKRNLQCICDYCEY; UniProt P56552 1-54, looked up) [sweet protein from Pentadiplandra brazzeana Baillon]
31 | 51 | Carnosifloside V
32 | 550 | Curculin
33 | 200 | Cyclocarioside A
34 | 250 | Cyclocaryoside I
35 | 3,000 | Monellin
36 | 500 | Pentadin
37 | 95 | Periandrin II
38 | 85 | Periandrin IV
39 | 600 | Polypodoside A
40 | 50 | Pterocaryoside A
41 | 150 | Rebaudioside B
42 | 30 | Rebaudioside C
43 | 54 | Scandenoside R6
44 | 1,600 | Thaumatin

Row | Compound | Sweetness/potency
45 | C=C(C)[C@@H]1CC=C(/C=N/O)CC1 [Perillartine] | 370
46 | C[C@H](CC[C@@H](O[C@@H]1O[C@H](CO[C@@H]2O[C@H](CO)[C@@H](O)[C@H](O)[C@H]2O)[C@@H](O)[C@H](O)[C@H]1O[C@@H]1O[C@H](CO)[C@@H](O)[C@H](O)[C@H]1O)C(C)(C)O)[C@H]1CC[C@@]2(C)[C@@H]3CC=C4[C@@H](CC[C@H](O[C@@H]5O[C@H](CO)[C@@H](O)[C@H](O)[C@H]5O)C4(C)C)[C@]3(C)[C@H](O)C[C@]12C [Siamenoside I] | 563
47 | O=C/C=C/c1ccccc1 [Trans-Cinnamaldehyde] | 50
